Tests used:
D4.4R = D4.4R (Homo sapiens, UniProt P21917); test: cell membrane [3H]spiperone binding assay
Experimental: (§1) Flp-In-CHO cells stably expressing the wild-type or mutant DRs were grown to 90% confluence in 175 cm^2 cell culture flasks. The cells were harvested in PBS containing 2 mM EDTA and centrifuged at 300g for 3 min. The resulting pellet was resuspended in ice-cold assay buffer (20 mM HEPES, 100 mM NaCl, 6 mM MgCl2, 1 mM EGTA, and 1 mM EDTA, pH 7.4), and the centrifugation step was repeated. The intact cell pellet was then resuspended in assay buffer and homogenized using a Polytron homogenizer. After centrifugation (1000g, 10 min), the pellet was discarded, and the supernatant was recentrifuged at 30,000g for 1 h at 4 °C using a Sorvall Evolution RC ultracentrifuge (Thermo Scientific). The resulting pellet was resuspended in assay buffer and stored in 250 μL aliquots at −80 °C. Membrane protein concentration was determined using a Pierce’s BCA protein assay kit (Thermo Fisher, Melbourne).
[^3H]­Spiperone binding experiments using cell membranes were conducted in a 200 μL reaction volume in assay buffer (20 mM HEPES, 100 mM NaCl, 6 mM MgCl2, 1 mM EGTA, and 1 mM EDTA, pH 7.4) containing 100 μM GppNHp and 0.1% ascorbic acid in 96-well plates. […] In all cases, nonspecific binding was determined in the presence of 10 μM haloperidol. […] Filter bound radioactivity was detected as a chemiluminescence after the addition of MicroScint-20 (Revvity) in a MicroBeta plate counter (Revvity).

SNAP-D2SR D80^2.50A = SNAP-D2SR D80^2.50A (Homo sapiens, UniProt P14416, D80A); test: cell membrane [3H]spiperone assay
Experimental: as §1
(§2) [^3H]­Spiperone binding experiments using cell membranes were conducted in a 200 μL reaction volume in assay buffer (20 mM HEPES, 100 mM NaCl, 6 mM MgCl2, 1 mM EGTA, and 1 mM EDTA, pH 7.4) containing 100 μM GppNHp and 0.1% ascorbic acid in 96-well plates. […] In all cases, nonspecific binding was determined in the presence of 10 μM haloperidol. […] Filter bound radioactivity was detected as a chemiluminescence after the addition of MicroScint-20 (Revvity) in a MicroBeta plate counter (Revvity). […]

D2LR = D2LR (Homo sapiens, UniProt P14416); test: ERK1/2 phosphorylation assay; format: cell-based; details: pERK1/2
Experimental: Flp-In-CHO cells stably expressing the D2LR were seeded into 96-well plates at a density of 50,000 cells/well. After 5 h, cells were washed with phosphate-buffered saline (PBS) and incubated in serum-free DMEM overnight before assaying. […] Stimulation of the cells was terminated by removing the medium followed by the addition of 100 μL of SureFire lysis buffer (PerkinElmer) to each well. The plate was shaken for 5 min at RT before 5 μL of the lysates was transferred to a white 384-well ProxiPlate (PerkinElmer). Then, 8 μL of a 240:1440:7:7 mixture of Surefire activation buffer:Surefire reaction buffer:AlphaScreen acceptor beads:AlphaScreen donor beads was added to the samples and incubated in the dark at 37 °C for 1.5 h. Plates were read using a Fusion plate reader.

SNAP-D2SR G51^1.49A = SNAP-D2SR G51^1.49A (Homo sapiens, UniProt P14416, G51A); test: cell membrane [3H]spiperone assay
Chain of SNAP-D2SR G51^1.49A (P14416 1-414 isoform P14416-2 G51A): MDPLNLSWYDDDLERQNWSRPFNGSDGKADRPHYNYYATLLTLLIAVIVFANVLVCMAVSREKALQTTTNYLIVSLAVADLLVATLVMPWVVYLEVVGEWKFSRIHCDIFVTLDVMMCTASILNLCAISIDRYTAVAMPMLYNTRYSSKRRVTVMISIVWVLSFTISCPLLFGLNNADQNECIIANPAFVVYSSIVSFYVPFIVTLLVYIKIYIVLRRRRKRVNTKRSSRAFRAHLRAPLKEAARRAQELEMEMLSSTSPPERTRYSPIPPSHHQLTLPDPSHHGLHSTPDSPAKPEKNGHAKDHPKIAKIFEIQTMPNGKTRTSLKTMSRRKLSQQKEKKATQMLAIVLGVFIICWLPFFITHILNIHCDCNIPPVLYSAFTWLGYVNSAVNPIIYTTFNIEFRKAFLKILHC
Experimental: as §1, §2

SNAP-D2SR L76^2.46A = SNAP-D2SR L76^2.46A (Homo sapiens, UniProt P14416, L76A); test: cell membrane [3H]spiperone assay
Chain of SNAP-D2SR L76^2.46A (P14416 1-414 isoform P14416-2 L76A): as the sequence (P14416 1-414 isoform P14416-2 G51A) above, with A51G, L76A counted along it
Experimental: as §1, §2

SNAP-D2SR S121^3.39A = target: T1, SNAP-D2SR S121^3.39A (Homo sapiens, UniProt P14416, S121A); test: cell membrane [3H]spiperone assay
T1 sequence (P14416 1-414 isoform P14416-2 S121A): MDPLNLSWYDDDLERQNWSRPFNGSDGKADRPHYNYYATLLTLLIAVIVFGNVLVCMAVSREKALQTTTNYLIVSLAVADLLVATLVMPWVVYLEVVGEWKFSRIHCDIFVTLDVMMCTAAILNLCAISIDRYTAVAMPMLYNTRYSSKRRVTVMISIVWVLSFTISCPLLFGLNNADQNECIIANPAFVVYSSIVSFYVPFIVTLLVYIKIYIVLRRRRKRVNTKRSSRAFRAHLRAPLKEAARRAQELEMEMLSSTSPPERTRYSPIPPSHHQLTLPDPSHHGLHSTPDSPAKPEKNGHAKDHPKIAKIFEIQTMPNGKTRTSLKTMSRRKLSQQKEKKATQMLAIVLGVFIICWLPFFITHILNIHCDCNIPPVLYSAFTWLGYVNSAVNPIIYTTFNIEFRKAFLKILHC
Experimental: as §1, §2

Chain of D2LR (P14416 whole entry, the tested form may be a part): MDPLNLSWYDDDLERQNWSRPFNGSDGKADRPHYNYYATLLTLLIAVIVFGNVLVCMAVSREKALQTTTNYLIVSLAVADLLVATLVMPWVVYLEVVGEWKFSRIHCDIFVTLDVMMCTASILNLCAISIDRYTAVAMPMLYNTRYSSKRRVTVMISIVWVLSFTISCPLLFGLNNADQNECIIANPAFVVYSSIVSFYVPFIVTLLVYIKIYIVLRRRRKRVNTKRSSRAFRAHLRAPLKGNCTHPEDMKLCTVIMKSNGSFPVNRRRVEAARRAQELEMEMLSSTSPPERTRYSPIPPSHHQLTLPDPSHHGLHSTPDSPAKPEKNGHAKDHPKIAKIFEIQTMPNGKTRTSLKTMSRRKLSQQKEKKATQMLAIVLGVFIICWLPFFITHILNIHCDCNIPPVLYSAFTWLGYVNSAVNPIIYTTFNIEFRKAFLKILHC
Chain of SNAP-D2SR D80^2.50A (P14416 1-414 isoform P14416-2 D80A): as the sequence (P14416 1-414 isoform P14416-2 G51A) above, with A51G, D80A counted along it
Chain of D4.4R (P21917 whole entry): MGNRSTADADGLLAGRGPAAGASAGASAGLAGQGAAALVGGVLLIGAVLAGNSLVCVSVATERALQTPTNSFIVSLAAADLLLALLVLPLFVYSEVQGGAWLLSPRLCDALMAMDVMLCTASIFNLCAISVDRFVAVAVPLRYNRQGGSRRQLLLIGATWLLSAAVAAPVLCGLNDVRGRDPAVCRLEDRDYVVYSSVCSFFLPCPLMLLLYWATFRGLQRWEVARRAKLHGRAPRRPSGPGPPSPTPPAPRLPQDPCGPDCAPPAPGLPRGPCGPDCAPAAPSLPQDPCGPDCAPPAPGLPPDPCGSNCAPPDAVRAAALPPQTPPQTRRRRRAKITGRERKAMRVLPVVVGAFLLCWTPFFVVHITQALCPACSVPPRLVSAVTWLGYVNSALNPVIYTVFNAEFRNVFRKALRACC

SMILES: COc1cc(CO)c(F)cc1C(=O)n1ccc2c(F)cccc21 [D2 PAM2, [5-fluoro-4-(hydroxymethyl)-2-methoxyphenyl]-(4-fluoro-1H-indol-1-yl)methanone]
- ability to potentiate DA binding at the D4R (D4.4R): no activity was observed
- fold shift + 10 μM PAM (SNAP-D2SR D80^2.50A; shift of DA IC50): 0.9 fold
- ΔpIC50 + 10 μM PAM (SNAP-D2SR D80^2.50A; shift of DA pIC50): –0.04 ± 0.27
- pKB (D2LR): 5.36 ± 0.13
- LogτB (D2LR; intrinsic efficacy): 0.18 ± 0.03
- Logαβ (D2LR; with dopamine): 1.37 ± 0.12
- fold shift + 10 μM PAM (SNAP-D2SR G51^1.49A; shift of DA IC50): 0.8 fold
- ΔpIC50 + 10 μM PAM (SNAP-D2SR G51^1.49A; shift of DA pIC50): –0.08 ± 0.17
- fold shift + 10 μM PAM (SNAP-D2SR L76^2.46A; shift of DA IC50): 3.5 fold
- ΔpIC50 + 10 μM PAM (SNAP-D2SR L76^2.46A; shift of DA pIC50): 0.55 ± 0.07
- fold shift + 10 μM PAM (SNAP-D2SR S121^3.39A; shift of DA IC50): 2.6 fold
- ΔpIC50 + 10 μM PAM (SNAP-D2SR S121^3.39A; shift of DA pIC50): 0.41 ± 0.18

From paper PMC12186844 (ACS Chemical Neuroscience, 2025)
